Laboratory results taken from patent US7371551B1, “Feedback-resistant homoserine transsuccinylases” (priority 2002, dated 2008).

Legend:
Assay in all cases: Inhibition of homoserine transsuccinylase activity by SAM (cell extract, DTNB assay at 412 nm)
Type in all cases: biochemical
Details in all cases: pH 7.5, read-out: Activity (%) in the presence of 1 mM SAM
[1] = target: T1, E. coli homoserine transsuccinylase (MetA, SEQ ID No. 2) variant pKP446, Tyr294 replaced with Cys (Escherichia coli, UniProt P07623, Y294C)
T1 construct: made in house; host or cells: E. coli W3110 (ATCC 27325), cell extract
T1 sequence (P07623 2-309 Y294C): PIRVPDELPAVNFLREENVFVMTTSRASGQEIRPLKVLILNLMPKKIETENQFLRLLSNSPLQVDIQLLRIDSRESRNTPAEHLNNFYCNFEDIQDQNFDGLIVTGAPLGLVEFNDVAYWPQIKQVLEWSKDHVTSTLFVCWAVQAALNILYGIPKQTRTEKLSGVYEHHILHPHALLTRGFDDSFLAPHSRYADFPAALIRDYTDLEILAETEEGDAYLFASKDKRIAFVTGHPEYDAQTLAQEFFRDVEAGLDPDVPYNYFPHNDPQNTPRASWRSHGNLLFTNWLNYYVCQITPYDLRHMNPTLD
Method: (§1) In order to determine the sensitivity of the activity of the different homoserine transsuccinylases to SAM, it is possible, for example, to carry out an activity test as described in Lee L. W. et al., J. Biol. Chem. 241, 5479-5480 (1966). In this method, the enzyme extract is incubated with homoserine and succinyl-CoA. After various times, a part of the test assay sample is stopped by adding it to a mixture of ethanol, water, and 5,5′-dithiobis(2-nitrobenzoic acid). The absorption is determined photometrically at 412 nm. The described test is suitable, for example, for determining the sensitivity of the homoserine transsuccinylases to SAM.
(§2) The influence of SAM on the activities of the different homoserine transsuccinylases was determined by quantifying the activity in the presence of different concentrations of SAM (Cl salt, Sigma). The cell extracts were grown and prepared as described in Example 3. The activity test was carried out as described in Lee L. W. et al., J. Biol. Chem. 241, 5479-5480 (1966), with the enzyme extract being incubated with 50 mM potassium phosphate buffer, pH 7.5, 3 mM homoserine and 0.3 mM succinyl-CoA. After various times, 100 μl volumes of test mixture were stopped by adding them in each case to a mixture of 400 μl of ethanol, 400 μl of water and 100 μl of 10 mM 5,5′-dithiobis(2-nitrobenzoic acid). After the resulting mixture had been incubated at room temperature for 5 minutes, the absorption was determined photometrically at 412 nm. After the protein concentration had been determined, the enzyme activity was calculated using the extinction coefficient. The Ki was determined as a measure of the ability of SAM to inhibit the activity.

[2] = target: T2, E. coli homoserine transsuccinylase (MetA, SEQ ID No. 2) variant pSLmetA*0, amino acid 294 (Tyr) deleted (Escherichia coli, UniProt P07623, DEL294-294)
T2 construct: made in house; host or cells: E. coli W3110 (ATCC 27325), cell extract
T2 sequence (P07623 other isoform, or with tags, fused parts or gaps DEL294-294): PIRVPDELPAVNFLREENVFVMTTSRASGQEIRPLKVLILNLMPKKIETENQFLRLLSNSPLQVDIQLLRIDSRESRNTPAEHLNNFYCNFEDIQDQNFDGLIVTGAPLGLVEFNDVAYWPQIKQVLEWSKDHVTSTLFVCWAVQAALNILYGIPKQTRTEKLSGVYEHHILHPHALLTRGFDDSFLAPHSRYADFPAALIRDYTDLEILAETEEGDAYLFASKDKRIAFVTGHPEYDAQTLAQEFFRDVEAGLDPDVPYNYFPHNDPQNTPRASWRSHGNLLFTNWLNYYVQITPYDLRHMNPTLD
Method: as §1, §2

[3] = target: T3, E. coli homoserine transsuccinylase (MetA, SEQ ID No. 2) variant pSLmetA*A, Tyr294 replaced with Ala (Escherichia coli, UniProt P07623, Y294A)
T3 construct: made in house; host or cells: E. coli W3110 (ATCC 27325), cell extract
T3 sequence (P07623 2-309 Y294A): as the sequence (P07623 2-309 Y294C) above, with C293A counted along it
Method: as §1, §2

[4] = target: T4, E. coli homoserine transsuccinylase (MetA, SEQ ID No. 2) variant pSLmetA*K, Tyr294 replaced with Lys (Escherichia coli, UniProt P07623, Y294K)
T4 construct: made in house; host or cells: E. coli W3110 (ATCC 27325), cell extract
T4 sequence (P07623 2-309 Y294K): as the sequence (P07623 2-309 Y294C) above, with C293K counted along it
Method: as §1, §2

[5] = target: T5, E. coli homoserine transsuccinylase (MetA, SEQ ID No. 2) variant pSLmetA*L, Tyr294 replaced with Leu (Escherichia coli, UniProt P07623, Y294L)
T5 construct: made in house; host or cells: E. coli W3110 (ATCC 27325), cell extract
T5 sequence (P07623 2-309 Y294L): as the sequence (P07623 2-309 Y294C) above, with C293L counted along it
Method: as §1, §2

[6] = target: T6, E. coli homoserine transsuccinylase (MetA, SEQ ID No. 2) variant pSLmetA*P, Tyr294 replaced with Pro (Escherichia coli, UniProt P07623, Y294P)
T6 construct: made in house; host or cells: E. coli W3110 (ATCC 27325), cell extract
T6 sequence (P07623 2-309 Y294P): as the sequence (P07623 2-309 Y294C) above, with C293P counted along it
Method: as §1, §2

[7] = target: T7, E. coli homoserine transsuccinylase (MetA, SEQ ID No. 2) variant pSLmetA*Q, Tyr294 replaced with Gln (Escherichia coli, UniProt P07623, Y294Q)
T7 construct: made in house; host or cells: E. coli W3110 (ATCC 27325), cell extract
T7 sequence (P07623 2-309 Y294Q): as the sequence (P07623 2-309 Y294C) above, with C293Q counted along it
Method: as §1, §2

[8] = target: T8, E. coli homoserine transsuccinylase (MetA, SEQ ID No. 2) variant pSLmetAN, Asp101 replaced with Asn (Escherichia coli, UniProt P07623, D101N)
T8 construct: made in house; host or cells: E. coli W3110 (ATCC 27325), cell extract
T8 sequence (P07623 2-309 D101N): as the sequence (P07623 2-309 Y294C) above, with D100N, C293Y counted along it
Method: as §1, §2

What does the source list for `C[S+](CC[C@H](N)C(=O)[O-])C[C@H]1O[C@@H](n2cnc3c(N)ncnc32)[C@H](O)[C@@H]1O` (some centres unmarked) [SAM, S-Adenosylmethionine]?
activity at 1000 µM [1]: 92%; activity at 1000 µM [2]: 96%; activity at 1000 µM [3]: 95%; activity at 1000 µM [4]: 90%; activity at 1000 µM [5]: 80%; activity at 1000 µM [6]: 98%; activity at 1000 µM [7]: 87%; activity at 1000 µM [8]: 91%
